{
  "source": "the COVID Moonshot data (paper PMC7615835)",
  "note": "Values joined by “and” are separate entries in the source; they are usually repeats but may differ in a detail not shown here. Equal values may be shown once.",
  "data": [
    {"target": "SARS-CoV-2 Main Protease (SARS-CoV-2) (UniProt P0DTD1)", "values": [
      {"smiles": "O=C(NCCc1cccc(F)c1)C(c1cccnc1)N(C(=O)c1cocn1)c1ccc(C(F)(F)F)nc1", "note": "(stereo not given)", "IC50": "36.4 µM"},
      {"smiles": "CC(C)N(C)S(=O)(=O)N1Cc2ccc(Cl)cc2C(C(=O)Nc2cncc3ccccc23)C1", "note": "(stereo not given)", "IC50": "0.126 µM"},
      {"smiles": "CC(C)(C)c1cc(Nc2cc(Cl)cc(CC(=O)Nc3cncc4ccccc34)c2)n(-c2ccccc2)n1", "IC50": "2.04 µM"},
      {"smiles": "CN(C)C(=O)C(CNC(=O)[C@@H](c1ccccc1)N1Cc2ccccc2C1=O)c1ccccc1", "note": "(stereo in doubt)", "IC50": "> 99.5 µM"},
      {"smiles": "Cc1cc2c(cc1C)C(C(=O)N1CCCCC1c1cn[nH]c1)CO2", "note": "(stereo not given)", "IC50": "> 99.5 µM"},
      {"smiles": "COc1cc(CN2CCN(C(=O)CCl)CC2)c2ccccc2c1", "IC50": "2.75 µM"},
      {"smiles": "CCN(CC)CCOc1ccc2cncc(N3CCC4(CN(S(=O)(=O)CC5(C#N)CC5)Cc5ccc(Cl)cc54)C3=O)c2c1", "note": "(stereo not given)", "IC50": "0.183 µM"},
      {"smiles": "O=C(Cc1cc(Cl)cc(Nc2nnc(-c3ccncc3)s2)c1)Nc1cncc2ccccc12", "IC50": "2.19 µM"},
      {"smiles": "C[C@H](C/C=C/C(C)(C)O)[C@H]1CC[C@@]2(C)[C@@H]3C=C[C@]45OC(O)[C@@]3(CC[C@]12C)[C@@H]4CC[C@H](O[C@@H]1O[C@H](CO)[C@@H](O)[C@H](O)[C@H]1O)C5(C)C", "note": "(stereo in doubt)", "IC50": "> 99.5 µM"},
      {"smiles": "CC1(CS(=O)(=O)N2Cc3ccc(Cl)cc3C(C(=O)Nc3cncc4ccc(C(C)(C)O)cc34)C2)CS(=O)(=O)C1", "note": "(stereo not given)", "IC50": "2.36 µM"},
      {"smiles": "CC(Cc1nc2ccccc2s1)Nc1ccc2nnnn2n1", "note": "(stereo not given)", "IC50": "> 99.5 µM"},
      {"smiles": "CSCCCNC(=O)C(c1cccnc1)N(C(=O)c1cocn1)c1ccc(C(C)(C)C)cc1", "note": "(stereo not given)", "IC50": "3.85 µM"},
      {"smiles": "O=C(Cc1cccc(Cl)c1)Nc1cncc2sccc12", "IC50": "0.425 µM"},
      {"smiles": "COC(=O)C1CC1C(=O)N1CCC(c2c[nH]c3ncccc23)CC1", "note": "(stereo not given)", "IC50": "> 99.5 µM"},
      {"smiles": "C=CC(=O)N(c1ccc(C(C)(C)C)cc1)C(C(=O)Nc1ccc(OC)cc1OC)c1cccnc1", "note": "(stereo not given)", "IC50": "6.47 µM"},
      {"smiles": "CC1CCNC(=O)C1NC(=O)Cc1cccc(Cl)c1", "note": "(stereo not given)", "IC50": "43.7 µM"},
      {"smiles": "N#Cc1cccc(NC(=O)Nc2cncc(N)c2)c1", "IC50": "54.3 µM"},
      {"smiles": "C[C@]1(C(=O)Nc2cncc3c2CCCC3)CNS(=O)(=O)c2ccc(Cl)cc21", "note": "(stereo in doubt)", "IC50": "0.214 µM"},
      {"smiles": "CNc1cncc(NC(=O)C2CCOc3ccc(Cl)cc32)c1C", "note": "(stereo not given)", "IC50": "32.3 µM"},
      {"smiles": "O=C1N(c2cncc3ccccc23)CCC12CN(S(=O)(=O)CC1(C(F)F)CC1)Cc1ccc(Cl)cc12", "note": "(stereo not given)", "IC50": "0.155 µM"},
      {"smiles": "O=C(Cc1cccc(Cl)c1)Nc1nnn[nH]1", "IC50": "45.3 µM"},
      {"smiles": "N#Cc1cc(CN2CCN(C(=O)CCl)CC2)c2ccccc2c1", "IC50": "4.61 µM"},
      {"smiles": "N#CC1(CS(=O)(=O)N2Cc3ccc(Cl)cc3C3(CCN(c4cncc5ccc(OCCCN6CCCC6)cc45)C3=O)C2)CC1", "note": "(stereo not given)", "IC50": "0.128 µM"},
      {"smiles": "CC(C)c1cc(N(C(=O)c2ccco2)C(C(=O)NCCc2cccc(F)c2)c2cccnc2)ccc1C(F)(F)F", "note": "(stereo not given)", "IC50": "> 99.5 µM"},
      {"smiles": "O=C(Cc1cc(Cl)cc(NCCc2ccc(Cl)cc2Cl)c1)Nc1cncc2ccccc12", "IC50": "3.91 µM"},
      {"smiles": "Cc1ccc(NC2=C(c3ccccc3)C(=O)N(Cc3cccnc3)C2=O)cc1Cl", "IC50": "> 99.5 µM"},
      {"smiles": "COc1ccccc1CN(C(=O)c1cnc[nH]1)C(C(=O)NCCc1cccc(F)c1)c1cccnc1", "note": "(stereo not given)", "IC50": "> 99 µM"},
      {"smiles": "O=C(NCCc1cccc(F)c1)C(c1cccnc1)N(C(=O)c1cocn1)C1CCCCCC1", "note": "(stereo not given)", "IC50": "> 99.5 µM"},
      {"smiles": "COc1ccc(N(Cc2cccc(Cl)c2)C(=O)Cn2nnc3ccccc32)cc1", "IC50": "1.14 µM"},
      {"smiles": "CNC(=O)Nc1ccc(N(C(=O)c2cocn2)C(C(=O)NCCc2cccc(F)c2)c2cccnc2)cc1", "note": "(stereo not given)", "IC50": "> 99.5 µM"},
      {"smiles": "COC1(c2cccc(Cl)c2)CCN(c2cncc3ccccc23)C1=O", "note": "(stereo not given)", "IC50": "0.467 µM"},
      {"smiles": "Cc1cc(Br)c(Nc2cc(Cl)cc(CC(=O)Nc3cncc4ccccc34)c2)c([N+](=O)[O-])c1", "IC50": "1.94 µM"},
      {"smiles": "COc1cc2c(cc1OC)CN(c1cc(Cl)cc(CC(=O)Nc3cncc4ccccc34)c1)CC2", "IC50": "1.65 µM"},
      {"smiles": "O=C(NCCc1cccc(F)c1)C(c1cccnc1)N(C(=O)c1cocn1)C1CCC2OCCC2C1", "note": "(stereo not given)", "IC50": "> 99.5 µM"},
      {"smiles": "COC(C)(C)CS(=O)(=O)N1Cc2ccc(Cl)cc2C(C(=O)Nc2cncc3ccccc23)C1", "note": "(stereo not given)", "IC50": "0.2 µM"},
      {"smiles": "COc1cc2nc(Cl)nc(Nc3cc(Cl)cc(CC(=O)Nc4cncc5ccccc45)c3)c2cc1OC", "IC50": "2.36 µM"},
      {"smiles": "COc1nc(Br)cnc1Nc1cc(Cl)cc(CC(=O)Nc2cncc3ccccc23)c1", "IC50": "2.05 µM"},
      {"smiles": "COc1ccc([N+](=O)[O-])cc1COC(=O)c1cnc2ccccc2n1", "IC50": "> 99.5 µM"},
      {"smiles": "CCC(=O)Nc1ccc(N(Cc2ccccc2)C(=O)n2nnc3ccccc32)cc1", "IC50": "> 99.5 µM"},
      {"smiles": "CC1(C(=O)Nc2cncc3ccccc23)CN(CC2CC2)S(=O)(=O)c2ccc(Cl)cc21", "note": "(stereo not given)", "IC50": "0.634 µM"},
      {"smiles": "C[C@@H]1C[C@H](C(=O)Nc2cncc3ccccc23)c2cc(Cl)ccc2O1", "note": "(stereo in doubt)", "IC50": "0.679 µM"},
      {"smiles": "O=C(NCCc1cccc(F)c1)C(c1cccnc1)N(C(=O)c1cnc[nH]1)c1ccc(C2COC2)cc1", "note": "(stereo not given)", "IC50": "22.7 µM"},
      {"smiles": "CNC(=O)CN1CC(C)(C(=O)Nc2cncc3cc(S(C)(=O)=O)ccc23)c2cc(Cl)ccc2S1(=O)=O", "note": "(stereo not given)", "IC50": "0.131 µM and 0.189 µM"},
      {"smiles": "N#Cc1cccc(NC(=O)Nc2c[nH]c3ncccc23)c1", "IC50": "63.6 µM"},
      {"smiles": "O=C(Cc1cc(Cl)cc(Nc2nnc(C(F)(F)F)s2)c1)Nc1cncc2ccccc12", "IC50": "2.44 µM"},
      {"smiles": "O=C1CC(C(=O)N2CCN(c3cccc(Cl)c3)CC2)c2ccccc2N1", "note": "(stereo not given)", "IC50": "20.9 µM"},
      {"smiles": "Cc1ccncc1NC(=O)Cc1cc(Cl)cc(-c2cnn(C)c2C(F)F)c1", "IC50": "19.3 µM"},
      {"smiles": "CCc1n[nH]c(=O)c(-c2nc(-c3c[nH]c4ncccc34)cs2)c1CC", "IC50": "> 99.5 µM"},
      {"smiles": "O=C(Cc1cc(Cl)cc(Nc2ccc3c(c2)OCCO3)c1)Nc1cncc2ccccc12", "IC50": "2.12 µM"},
      {"smiles": "O=C(NCC(c1ccccc1)c1c[nH]c2ccccc12)c1cnccn1", "note": "(stereo not given)", "IC50": "> 99.5 µM"},
      {"smiles": "CN(Cc1nnc2ccccn12)C(=O)c1ccnc2ccccc12", "IC50": "> 99.5 µM"},
      {"smiles": "OC(Cc1cccc(Cl)c1)Cn1cncn1", "note": "(stereo not given)", "IC50": "65.3 µM"},
      {"smiles": "O=C(NCCc1cccc(F)c1)C(c1cccnc1)N(C(=O)c1cocn1)c1ccc2scnc2c1", "note": "(stereo not given)", "IC50": "84 µM"},
      {"smiles": "CCOC(=O)[C@H]1CCCN(c2cc(Cl)cc(CC(=O)Nc3cncc4ccccc34)c2)C1", "note": "(stereo in doubt)", "IC50": "2.43 µM"},
      {"smiles": "O=C(Cc1cccc(C(F)(F)F)c1)Nc1cnccc1C(=O)O", "IC50": "> 99.5 µM"},
      {"smiles": "CN(C)C(=O)CN1CCC(C(=O)Nc2cncc3ccccc23)c2cc(Cl)ccc21", "note": "(stereo not given)", "IC50": "2.54 µM"},
      {"smiles": "COc1cc(Nc2cc(Cl)cc(CC(=O)Nc3cncc4ccccc34)c2)cc(OC)c1", "IC50": "1.96 µM"},
      {"smiles": "Cc1ccc(CC(=O)Nc2cncc3ccccc23)cc1", "IC50": "58.4 µM"},
      {"smiles": "NC(=O)c1c(Nc2cc(Cl)cc(CC(=O)Nc3cncc4ccccc34)c2)sc2c1CCCC2", "IC50": "2.43 µM"},
      {"smiles": "Cc1nn2c(CNc3ccc(Cn4cncn4)cc3)c(C)nc2s1", "IC50": "> 99.5 µM"},
      {"smiles": "CNC(=O)CN1CC(C)(C(=O)Nc2cncc3ccccc23)c2cc(Cl)ccc2C1=O", "note": "(stereo not given)", "IC50": "0.128 µM and 0.214 µM"},
      {"smiles": "CC(=O)N1CCN(CC(=O)Nc2cnccc2-c2ccccc2)CC1", "IC50": "> 99.5 µM"},
      {"smiles": "CC(C)(O)c1cccc(N(C(=O)c2cocn2)C(C(=O)NCCc2cccc(F)c2)c2cccnc2)c1", "note": "(stereo not given)", "IC50": "> 99.5 µM"},
      {"smiles": "O=C1CCC(c2ccc(N(C(=O)c3cocn3)C(C(=O)NCCc3cccc(F)c3)c3cccnc3)cc2)N1", "note": "(stereo not given)", "IC50": "> 99.5 µM"},
      {"smiles": "O=C(Cc1cc(Cl)cc(-c2nnc[nH]2)c1)Nc1cncc2ccccc12", "IC50": "5.3 µM"},
      {"smiles": "N#Cc1cccc(C2CN(C(=O)CCl)Cc3ccccc32)c1", "note": "(stereo not given)", "IC50": "1.17 µM"},
      {"smiles": "O=C(CCl)N1CCN(C(c2ccccc2)c2ccccc2)CC1", "IC50": "1.98 µM"},
      {"smiles": "COC(=O)[C@@H]1CC[C@H](NC(=O)C(c2cccnc2)N(C(=O)c2cocn2)c2ccc(C(C)(C)C)cc2)C1", "note": "(stereo in doubt)", "IC50": "2.38 µM"},
      {"smiles": "O=C(Cc1cc(Cl)cc(Cc2ccn[nH]2)c1)Nc1cncc2ccccc12", "IC50": "5.04 µM"},
      {"smiles": "O=C(O)CCc1cc2c(cc1S(=O)(=O)N1CCN(c3ccccc3)CC1)OCO2", "IC50": "> 99.5 µM"}
    ]}
  ]
}
